Assay results from patent publication US9302999B2, “Substituted triazoles as herbicides” (E. I. DU PONT DE NEMOURS AND COMPANY, priority 2012, dated 2016).

Assays:
Assay type in all cases: in vivo
kochia (Kochia scoparia) = experiment: Test C pre-/postemergence: kochia; conditions: Postemergence
Outline: (§1)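 Visual injury scored 0–100 (100 = complete control) against untreated controls after 13–15 greenhouse days. Surfactant-containing solvent formulations applied either to soil after sowing (loam/sand) or over 1- to 4-leaf plants, 2–18 cm tall.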

corn (Zea mays) = experiment: Test C pre-/postemergence: corn
Outline: as §1

[1] = system: velvetleaf (Abutilon theophrasti); experiment: Test A pre-/postemergence: velvetleaf
Outline: (§2)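 Injury is scored visually on a scale where 0 means no effect and 100 complete control, comparing treated with untreated plants after approximately ten greenhouse days. Both preemergence and postemergence applications are made at the same time.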

[2] = system: morningglory (Ipomoea spp.); experiment: Test A pre-/postemergence: morningglory
Outline: as §2

[3] = system: ragweed (common ragweed, Ambrosia elation); experiment: Test C pre-/postemergence: ragweed
Outline: as §1

[4] = system: pigweed (Amaranthus retroflexus); experiment: Test A pre-/postemergence: pigweed
Outline: as §2

[5] = system: wheat (Triticum aestivum); experiment: Test A pre-/postemergence: wheat
Outline: as §2

[6] = system: velvetleaf (Abutilon theophrasti); experiment: Test C pre-/postemergence: velvetleaf
Outline: as §1

[7] = system: morningglory (Ipomoea coccinea); experiment: Test C pre-/postemergence: morningglory
Outline: as §1

[8] = system: chickweed (common chickweed, Stellaria media); experiment: Test C postemergence: chickweed
Outline: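 Visual ratings of 0 (no effect) to 100 (complete control) were made against controls 13-15 days after a postemergence spray, with plants kept in a greenhouse. Plants were 2-18 cm tall (1- to 4-leaf stage) in Redi-Earth peat/vermiculite medium at treatment.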

[9] = system: winter wheat (Triticum aestivum); experiment: Test C pre-/postemergence: winter wheat
Outline: as §1

[10] = system: foxtail, giant (giant foxtail, Setaria faberii); experiment: Test A pre-/postemergence: foxtail, giant
Outline: as §2

[11] = 31 g ai/ha, scale 0 to 100 (0 no effect, 100 complete control)
[12] = 62 g ai/ha, scale 0 to 100 (0 no effect, 100 complete control)
[13] = 125 g ai/ha, scale 0 to 100, 0 no effect, 100 complete control
[14] = Postemergence, 31 g ai/ha, scale 0 to 100 (0 no effect, 100 complete control)
[15] = Postemergence, 62 g ai/ha, scale 0 to 100 (0 no effect, 100 complete control)
[16] = Postemergence, 125 g ai/ha, scale 0 to 100, 0 no effect, 100 complete control
[17] = Postemergence, 250 g ai/ha, scale 0 to 100
[18] = Preemergence, 31 g ai/ha, scale 0 (no effect) to 100 (complete control)
[19] = Preemergence, 62 g ai/ha, scale of 0 to 100, 0 is no effect, 100 is complete control
[20] = Preemergence, 125 g ai/ha, scale 0 to 100, 0 no effect, 100 complete control
[21] = Preemergence, 250 g ai/ha, scale 0 to 100, 0 no effect, 100 complete control
[22] = Postemergence, 125 g ai/ha, 0 to 100 scale, 0 is no effect, 100 is complete control
[23] = Postemergence, 500 g ai/ha, 0 to 100 scale, 0 is no effect, 100 is complete control
[24] = Preemergence, 125 g ai/ha, 0 to 100 scale where 0 is no effect and 100 is complete control
[25] = Preemergence, 500 g ai/ha, 0 to 100 scale (0 no effect, 100 complete control)
[26] = Postemergence, 250 g ai/ha, scale 0 to 100 (0 no effect, 100 complete control)
[27] = Preemergence, 31 g ai/ha, scale of 0 to 100, 0 is no effect, 100 is complete control
[28] = Postemergence, 500 g ai/ha, visual rating on 0 to 100 scale (0 no effect, 100 complete control), approximately ten days

`CCCc1nn(-c2ccc(C(F)(F)F)c(F)c2)nc1Oc1ccnc(C(F)(F)F)c1` [Compound 185] was tested, and the “Plant response rating, Kochia” value (kochia (Kochia scoparia); [11]) was 90, the “Plant response rating, Kochia” value (kochia (Kochia scoparia); [12]) was 90 and the “Plant response rating, Kochia” value (kochia (Kochia scoparia); [13]) was 90. The “Plant response rating, Kochia” value (kochia (Kochia scoparia); 250 g ai/ha, scale 0 to 100 (0 no effect, 100 complete control)) was 90, the “Plant response rating, Corn” value (corn (Zea mays); [14]) was 15 and the “Plant response rating, Corn” value (corn (Zea mays); [15]) was 20. For the same compound, the “Plant response rating, Corn” value (corn (Zea mays); [16]) was 25, the “Plant response rating, Corn” value (corn (Zea mays); [17]) was 25 and the “Plant response rating, Corn” value (corn (Zea mays); [18]) was 5. The “Plant response rating, Corn” value (corn (Zea mays); [19]) was 5, the “Plant response rating, Corn” value (corn (Zea mays); [20]) was 35 and the “Plant response rating, Corn” value (corn (Zea mays); [21]) was 35. The “Plant response rating, Velvetleaf” value [1, 22] was 100, the “Velvetleaf plant response rating” value [1, 23] was 100 and the “Plant response rating, Velvetleaf” value [1, 24] was 90. For the same compound, the “Plant response rating, Velvetleaf” value [1, 25] was 100, the “Plant response rating, Morningglory” value [2, 22] was 100 and the “Morningglory plant response rating” value [2, 23] was 100. For the same compound, the “Plant response rating, Morningglory” value [2, 24] was 60, the “Plant response rating, Morningglory” value [2, 25] was 100 and the “Plant response rating, Ragweed” value [3, 14] was 75. For the same compound, the “Plant response rating, Ragweed” value [3, 15] was 90, the “Plant response rating, Ragweed” value [3, 16] was 95 and the “Plant response rating, Ragweed” value [3, 26] was 95. The “Plant response rating, Ragweed” value [3, 18] was 40, the “Plant response rating, Ragweed” value [3, 19] was 80 and the “Plant response rating, Ragweed” value [3, 20] was 95. For the same compound, the “Plant response rating, Ragweed” value [3, 21] was 95, the “Plant response rating, Pigweed” value [4, 22] was 100 and the “Pigweed plant response rating” value [4, 23] was 100. The “Plant response rating, Pigweed” value [4, 24] was 100, the “Plant response rating, Pigweed” value [4, 25] was 100 and the “Plant response rating, Wheat” value [5, 22] was 20. For the same compound, the “Wheat plant response rating” value [5, 23] was 40, the “Plant response rating, Wheat” value [5, 24] was 30 and the “Plant response rating, Wheat” value [5, 25] was 50. For the same compound, the “Plant response rating, Velvetleaf” value [6, 14] was 55, the “Plant response rating, Velvetleaf” value [6, 15] was 80 and the “Plant response rating, Velvetleaf” value [6, 16] was 85. For the same compound, the “Plant response rating, Velvetleaf” value [6, 26] was 90, the “Plant response rating, Velvetleaf” value [6, 18] was 60 and the “Plant response rating, Velvetleaf” value [6, 19] was 80. For the same compound, the “Plant response rating, Velvetleaf” value [6, 20] was 100, the “Plant response rating, Velvetleaf” value [6, 21] was 100 and the “Plant response rating, Morningglory” value [7, 14] was 90. For the same compound, the “Plant response rating, Morningglory” value [7, 15] was 98, the “Plant response rating, Morningglory” value [7, 16] was 100 and the “Plant response rating, Morningglory” value [7, 26] was 100. For the same compound, the “Plant response rating, Morningglory” value [7, 18] was 45, the “Plant response rating, Morningglory” value [7, 19] was 55 and the “Plant response rating, Morningglory” value [7, 20] was 70. The “Plant response rating, Morningglory” value [7, 21] was 100, the “Plant response rating, Chickweed” value [8, 11] was 70 and the “Plant response rating, Chickweed” value [8, 12] was 85. The “Plant response rating, Chickweed” value [8, 13] was 95, the “Plant response rating, Chickweed” value ([8]; 250 g ai/ha, scale 0 to 100) was 95 and the “Plant response rating, Wheat” value [9, 14] was 5. The “Plant response rating, Wheat” value [9, 15] was 15, the “Plant response rating, Wheat” value [9, 16] was 15 and the “Plant response rating, Wheat” value [9, 26] was 20. For the same compound, the “Plant response rating, Wheat” value [9, 18] was 10, the “Plant response rating, Wheat” value [9, 19] was 40 and the “Plant response rating, Wheat” value [9, 20] was 40. The “Plant response rating, Wheat” value [9, 21] was 55, the “Plant response rating, Foxtail, Giant” value [10, 22] was 90 and the “Foxtail, Giant plant response rating” value [10, 23] was 90. The “Plant response rating, Foxtail, Giant” value [10, 24] was 100 and the “Plant response rating, Foxtail, Giant” value [10, 25] was 100.
In the case of `Cc1nn(-c2ccc(C(F)(F)F)c(F)c2)nc1Cc1ccnc(C(F)(F)F)c1` [Compound 162], the “Plant response rating, Kochia” value (kochia (Kochia scoparia); [11]) is reported as 90, the “Plant response rating, Kochia” value (kochia (Kochia scoparia); [12]) is reported as 90 and the “Plant response rating, Kochia” value (kochia (Kochia scoparia); [13]) is reported as 95. For the same compound, the “Plant response rating, Kochia” value (kochia (Kochia scoparia); 250 g ai/ha, scale 0 to 100) was 95, the “Plant response rating, Corn” value (corn (Zea mays); [14]) was 15 and the “Plant response rating, Corn” value (corn (Zea mays); [15]) was 30. For the same compound, the “Plant response rating, Corn” value (corn (Zea mays); [16]) was 30, the “Plant response rating, Corn” value (corn (Zea mays); [17]) was 40 and the “Plant response rating, Corn” value (corn (Zea mays); [27]) was 5. For the same compound, the “Plant response rating, Corn” value (corn (Zea mays); [19]) was 20, the “Plant response rating, Corn” value (corn (Zea mays); [20]) was 20 and the “Plant response rating, Corn” value (corn (Zea mays); [21]) was 35. For the same compound, the “Plant response rating, Velvetleaf” value [1, 22] was 90, the “Velvetleaf plant response rating” value [1, 28] was 100 and the “Plant response rating, Velvetleaf” value [1, 24] was 100. For the same compound, the “Plant response rating, Velvetleaf” value [1, 25] was 100, the “Plant response rating, Morningglory” value [2, 22] was 90 and the “Morningglory plant response rating” value [2, 28] was 90. The “Plant response rating, Morningglory” value [2, 24] was 30, the “Plant response rating, Morningglory” value [2, 25] was 90 and the “Plant response rating, Ragweed” value [3, 14] was 85. The “Plant response rating, Ragweed” value [3, 16] was 85, the “Plant response rating, Ragweed” value [3, 17] was 95 and the “Plant response rating, Ragweed” value [3, 27] was 50. The “Plant response rating, Ragweed” value [3, 19] was 75, the “Plant response rating, Ragweed” value [3, 20] was 80 and the “Plant response rating, Ragweed” value [3, 21] was 95. For the same compound, the “Plant response rating, Pigweed” value [4, 22] was 100, the “Pigweed plant response rating” value [4, 28] was 100 and the “Plant response rating, Pigweed” value [4, 24] was 100. The “Plant response rating, Pigweed” value [4, 25] was 100, the “Plant response rating, Wheat” value [5, 22] was 20 and the “Wheat plant response rating” value [5, 28] was 30. For the same compound, the “Plant response rating, Wheat” value [5, 24] was 10, the “Plant response rating, Wheat” value [5, 25] was 30 and the “Plant response rating, Velvetleaf” value [6, 14] was 35. For the same compound, the “Plant response rating, Velvetleaf” value [6, 15] was 55, the “Plant response rating, Velvetleaf” value [6, 16] was 60 and the “Plant response rating, Velvetleaf” value [6, 17] was 85. The “Plant response rating, Velvetleaf” value [6, 27] was 55, the “Plant response rating, Velvetleaf” value [6, 19] was 80 and the “Plant response rating, Velvetleaf” value [6, 20] was 100. The “Plant response rating, Velvetleaf” value [6, 21] was 100, the “Plant response rating, Morningglory” value [7, 27] was 55 and the “Plant response rating, Morningglory” value [7, 19] was 60. The “Plant response rating, Morningglory” value [7, 20] was 80, the “Plant response rating, Morningglory” value [7, 21] was 85 and the “Plant response rating, Chickweed” value [8, 11] was 100. For the same compound, the “Plant response rating, Chickweed” value [8, 12] was 100, the “Plant response rating, Chickweed” value [8, 13] was 100 and the “Plant response rating, Chickweed” value ([8]; 250 g ai/ha, scale 0 to 100) was 100. The “Plant response rating, Wheat” value [9, 14] was 20, the “Plant response rating, Wheat” value [9, 15] was 20 and the “Plant response rating, Wheat” value [9, 16] was 25. For the same compound, the “Plant response rating, Wheat” value [9, 17] was 25, the “Plant response rating, Wheat” value [9, 19] was 5 and the “Plant response rating, Wheat” value [9, 20] was 20. The “Plant response rating, Wheat” value [9, 21] was 35, the “Plant response rating, Foxtail, Giant” value [10, 22] was 90 and the “Foxtail, Giant plant response rating” value [10, 28] was 90. For the same compound, the “Plant response rating, Foxtail, Giant” value [10, 24] was 100 and the “Plant response rating, Foxtail, Giant” value [10, 25] was 100.
